Results: PubChem BioAssay AID2060894 (Molecular Pharmacology Branch, DTP, NCI, 2025)

Test system: K12877-001-R-J1-PDC complex spheroid viability
Test: Anticancer human tumor K12877-001-R-J1-PDC patient-derived lung adenocarcinoma cell line growth inhibition [RAS]
Details: for IC50: curve of first compound; for viability, T/C: stronger effect = lower value
Procedure, shortened: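 Agents were tested in combination matrices in half-log decrements from a top concentration at or near clinical Cmax (10 microM if undetermined). Targets were multi-cell spheroids of tumour lines plus HUVEC and MSC stromal cells.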
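Further: spheroids exposed to agents for one week before readout.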
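Wherever viability, T/C is given: tumour cells co-cultured with HUVEC and mesenchymal stem cells in spheroids.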

CCc1c2c(nc3ccc(O)cc13)-c1cc3c(c(=O)n1C2)COC(=O)[C@]3(O)CC + CCn1c(-c2cccnc2C(C)OC)c2c3cc(ccc31)N1CCOC(CC(NC(=O)C(C(C)C)N(C)C(=O)C3(F)CCN(C(=O)C#CC(C)(C)N(C)C)CC3)C(=O)N3CCCC(N3)C(=O)OCC(C)(C)C2)C1
IC50 (second compound 0.000949 µM): 4.24 nM
IC50 (second compound 0.003 µM): 3.18 nM
IC50 (second compound 0.00949 µM): 2.99 nM
IC50 (second compound 0.03 µM): 2.98 nM
IC50 (second compound 0.0949 µM): 2.7 nM
IC50 (second compound 0.3 µM): 1.63 nM
viability, T/C (second compound 0.000949 µM, first compound 0.000949 µM): 89.5%
viability, T/C (second compound 0.000949 µM, first compound 0.003 µM): 68.3%
viability, T/C (second compound 0.000949 µM, first compound 0.00949 µM): 7.36%
viability, T/C (second compound 0.000949 µM, first compound 0.03 µM): 4.07%
viability, T/C (second compound 0.000949 µM, first compound 0.0949 µM): 2.52%
viability, T/C (second compound 0.000949 µM, first compound 0.3 µM): 1.41%
viability, T/C (second compound 0.003 µM, first compound 0.000949 µM): 62.1%
viability, T/C (second compound 0.003 µM, first compound 0.003 µM): 52.2%
viability, T/C (second compound 0.003 µM, first compound 0.00949 µM): 8.47%
viability, T/C (second compound 0.003 µM, first compound 0.03 µM): 3.87%
viability, T/C (second compound 0.003 µM, first compound 0.0949 µM): 2.21%
viability, T/C (second compound 0.003 µM, first compound 0.3 µM): 1.33%
viability, T/C (second compound 0.00949 µM, first compound 0.000949 µM): 78.3%
viability, T/C (second compound 0.00949 µM, first compound 0.003 µM): 49.9%
viability, T/C (second compound 0.00949 µM, first compound 0.00949 µM): 7.64%
viability, T/C (second compound 0.00949 µM, first compound 0.03 µM): 4.13%
viability, T/C (second compound 0.00949 µM, first compound 0.0949 µM): 2.66%
viability, T/C (second compound 0.00949 µM, first compound 0.3 µM): 1.35%
viability, T/C (second compound 0.03 µM, first compound 0.000949 µM): 78.1%
viability, T/C (second compound 0.03 µM, first compound 0.003 µM): 49.9%
viability, T/C (second compound 0.03 µM, first compound 0.00949 µM): 7.8%
viability, T/C (second compound 0.03 µM, first compound 0.03 µM): 3.09%
viability, T/C (second compound 0.03 µM, first compound 0.0949 µM): 2.15%
viability, T/C (second compound 0.03 µM, first compound 0.3 µM): 1.08%
viability, T/C (second compound 0.0949 µM, first compound 0.000949 µM): 75.5%
viability, T/C (second compound 0.0949 µM, first compound 0.003 µM): 47.4%
viability, T/C (second compound 0.0949 µM, first compound 0.00949 µM): 6.39%
viability, T/C (second compound 0.0949 µM, first compound 0.03 µM): 4.02%
viability, T/C (second compound 0.0949 µM, first compound 0.0949 µM): 2.14%
viability, T/C (second compound 0.0949 µM, first compound 0.3 µM): 1.27%
viability, T/C (second compound 0.3 µM, first compound 0.000949 µM): 62.8%
viability, T/C (second compound 0.3 µM, first compound 0.003 µM): 35.8%
viability, T/C (second compound 0.3 µM, first compound 0.00949 µM): 5.11%
viability, T/C (second compound 0.3 µM, first compound 0.03 µM): 3.66%
viability, T/C (second compound 0.3 µM, first compound 0.0949 µM): 1.47%
viability, T/C (second compound 0.3 µM, first compound 0.3 µM): 1.32%

CC(Nc1ccc2c(c1)OCCn1cc(N3C(=O)OCC3C(F)F)nc1-2)C(N)=O (centres undefined) + C=CC(=O)N1CCN(c2nc(OCC3CCCN3C)nc3c(F)c(-c4nc(N)cc(C)c4C(F)(F)F)c(Cl)cc23)C(C)C1
IC50 (second compound 0.00316 µM): 1220 nM
IC50 (second compound 0.01 µM): 1920 nM
IC50 (second compound 0.0316 µM): 2120 nM
IC50 (second compound 0.1 µM): 1860 nM
IC50 (second compound 0.316 µM): 1160 nM
IC50 (second compound 1 µM): 1430 nM
viability, T/C (second compound 0.00316 µM, first compound 0.0316 µM): 92%
viability, T/C (second compound 0.00316 µM, first compound 0.1 µM): 72.8%
viability, T/C (second compound 0.00316 µM, first compound 0.316 µM): 57.6%
viability, T/C (second compound 0.00316 µM, first compound 1 µM): 61.6%
viability, T/C (second compound 0.00316 µM, first compound 3.16 µM): 44.9%
viability, T/C (second compound 0.00316 µM, first compound 10 µM): 21.3%
viability, T/C (second compound 0.01 µM, first compound 0.0316 µM): 86.3%
viability, T/C (second compound 0.01 µM, first compound 0.1 µM): 69.6%
viability, T/C (second compound 0.01 µM, first compound 0.316 µM): 57.9%
viability, T/C (second compound 0.01 µM, first compound 1 µM): 64%
viability, T/C (second compound 0.01 µM, first compound 3.16 µM): 48.7%
viability, T/C (second compound 0.01 µM, first compound 10 µM): 18.7%
viability, T/C (second compound 0.0316 µM, first compound 0.0316 µM): 74.3%
viability, T/C (second compound 0.0316 µM, first compound 0.1 µM): 78.4%
viability, T/C (second compound 0.0316 µM, first compound 0.316 µM): 57.6%
viability, T/C (second compound 0.0316 µM, first compound 1 µM): 63.1%
viability, T/C (second compound 0.0316 µM, first compound 3.16 µM): 46.2%
viability, T/C (second compound 0.0316 µM, first compound 10 µM): 16.8%
viability, T/C (second compound 0.1 µM, first compound 0.0316 µM): 76.7%
viability, T/C (second compound 0.1 µM, first compound 0.1 µM): 64.7%
viability, T/C (second compound 0.1 µM, first compound 0.316 µM): 65%
viability, T/C (second compound 0.1 µM, first compound 1 µM): 63.2%
viability, T/C (second compound 0.1 µM, first compound 3.16 µM): 40.4%
viability, T/C (second compound 0.1 µM, first compound 10 µM): 15%
viability, T/C (second compound 0.316 µM, first compound 0.0316 µM): 75.9%
viability, T/C (second compound 0.316 µM, first compound 0.1 µM): 79.1%
viability, T/C (second compound 0.316 µM, first compound 0.316 µM): 62.3%
viability, T/C (second compound 0.316 µM, first compound 1 µM): 50.9%
viability, T/C (second compound 0.316 µM, first compound 3.16 µM): 37.6%
viability, T/C (second compound 0.316 µM, first compound 10 µM): 19.1%
viability, T/C (second compound 1 µM, first compound 0.0316 µM): 77%
viability, T/C (second compound 1 µM, first compound 0.1 µM): 70.9%
viability, T/C (second compound 1 µM, first compound 0.316 µM): 62.2%
viability, T/C (second compound 1 µM, first compound 1 µM): 53.1%
viability, T/C (second compound 1 µM, first compound 3.16 µM): 43.5%
viability, T/C (second compound 1 µM, first compound 10 µM): 19.6%
